Source: US20100292185A1, “BETA-LACTAMASE INHIBITORS” (priority 2009, published 2010)
Where a name gives a salt, the structure may show the parent alone. Read-outs that look alike come from different tables or passages of the source.

How the values were obtained:
SHV-5 β-lactamase = molecular target: T1, SHV-5 β-lactamase (Klebsiella pneumoniae, UniProt P0A3M1); test: β-lactamase enzyme inhibition assay (nitrocefin substrate), SHV-5; type: biochemical
T1 construct: expressed as native untagged proteins; made in house; host or cells: E. coli BL21(DE3)
T1 sequence (P0A3M1 22-286): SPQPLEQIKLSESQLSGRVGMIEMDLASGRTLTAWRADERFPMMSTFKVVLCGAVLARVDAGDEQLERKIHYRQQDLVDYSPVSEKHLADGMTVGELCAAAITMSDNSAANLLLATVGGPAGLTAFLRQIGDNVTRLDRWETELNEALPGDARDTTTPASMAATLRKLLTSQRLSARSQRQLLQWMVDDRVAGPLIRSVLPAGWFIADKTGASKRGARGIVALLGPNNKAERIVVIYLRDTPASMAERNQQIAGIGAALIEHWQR
Description: (§1) Isolation of β-lactamases. For SHV-5, p99 AmpC, KPC-2 and CTX-M15 β-lactamases, E. coli BL21(DE3) bacterial cells carrying expression plasmids (expressed as native untagged proteins) for the individual β-lactamases were grown in 1 L of Superbroth (Teknova Inc. Hollister, Calif.) supplemented with 100 μg/ml kanamycin and 1×5052 (0.5% glycerol, 0.05% glucose and 0.2% α-lactose) at 35° C. for 18-20 hours. Cells were harvested by centrifugation (4,000×g, 4° C., 20 min), and resuspended in 50 ml of 10 mM HEPES pH 7.5 (1/20 of the initial volume). The cells were lysed by sonication (5 pulses of 45 seconds) at 45 W on ice. The lysates were clarified by centrifugation at 10,000×g for 40 minutes at 4° C. Samples were diluted 5-fold in 50 mM sodium acetate pH 5.0, stored overnight at 4° C., after which they were centrifuged at 10,000×g for 30 minutes to clarify, and filtered through 0.45 μm filters. The samples were loaded onto a 5 ml Capto S sepharose cation exchange column (GE Healthcare) pre-equilibrated with 50 mM sodium acetate pH 5.0. The column was washed with 5 column volumes of 50 mM sodium acetate pH 5.0 to wash out unbound protein and a linear gradient of NaCl (0 to 500 mM) was used to elute the protein (over 16 CV) from the column. Fractions were assayed for β-lactamase activity using Centa (Calbiochem, Gibbstown, N.J.) as a reporter β-lactamase substrate for activity in the isolated fractions. Active fractions were pooled, concentrated and further purified by gel filtration chromatography on a Superdex 75 prep grade gel filtration column (GE Healthcare, Piscataway, N.J.) pre-equilibrated in 50 mM Hepes pH 7.5, 150 mM NaCl. Active fractions were pooled concentrated, quantitated by BCA protein determination (Thermo Scientific, Rockford, Ill.), and frozen at −80° C. in 20% glycerol until use.
(§2) β-lactamase Inhibition. To determine the level of inhibition of β-lactamase enzymes, compounds were diluted in PBS at pH 7.0 to yield concentrations between 100 and 0.005 μM in microtiter plates. An equal volume of diluted enzyme stock was added, and the plates were incubated at 37° C. for 10 min. Nitrocefin solution was then dispensed as substrate into each well at a final concentration of 100 μM, and the plates were immediately read with the kinetic program at 486 nm for 10 min on the SPECTRAMAX® Plus^384 (high-throughput microplate spectrophotometer; Molecular Devices Corp., Sunnyvale, Calif.). Maximum rates of metabolism were then compared to those in control wells (without inhibitors), and percentages of enzyme inhibition were calculated for each concentration of inhibitor. The concentration of inhibitor needed to reduce the initial rate of hydrolysis of substrate by 50% (IC50) was calculated as the residual activity of β-lactamase at 486 nm using the SoftMax Pro 5.0 software (Molecular Devices Corp.).
(§3) Using the methodology described above, examples of the current invention were evaluated for their ability to inhibit β-lactamase enzymes. The results of these assays are summarized in Table 2 for representative enzymes across different subtypes (note SHV-5 and CTXM-15 exemplify different subclasses of Ambler Class A Extended Spectrum Beta Lactamases, KPC-2 exemplifies Class A carbapenemases, P99 represents chromosomal Class C AmpC, VIM-2 exemplifies subclass B1 of metallo-β-lactamases, and OXA-23 represents chromosome-encoded Class D oxacillin-hydrolyzing β-lactamases), NT=not tested.

CTX-M15 β-lactamase = molecular target: T2, CTX-M15 β-lactamase (Escherichia coli, UniProt Q9EXV5); test: β-lactamase enzyme inhibition assay (nitrocefin substrate), CTXM-15; type: biochemical
T2 construct: expressed as native untagged proteins; made in house; host or cells: E. coli BL21(DE3)
T2 sequence (Q9EXV5 entry or part of it): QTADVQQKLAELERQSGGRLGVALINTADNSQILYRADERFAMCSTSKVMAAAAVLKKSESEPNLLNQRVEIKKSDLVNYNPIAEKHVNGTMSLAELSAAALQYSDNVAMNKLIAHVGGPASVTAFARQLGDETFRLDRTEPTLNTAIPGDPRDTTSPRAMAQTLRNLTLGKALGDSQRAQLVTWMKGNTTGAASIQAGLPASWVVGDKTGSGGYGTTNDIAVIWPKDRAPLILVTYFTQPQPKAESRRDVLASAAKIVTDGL
Description: as §1, §2, §3

p99 AmpC β-lactamase = molecular target: T3, p99 AmpC β-lactamase (Enterobacter cloacae, UniProt P05364); test: β-lactamase enzyme inhibition assay (nitrocefin substrate), P99 AmpC; type: biochemical
T3 construct: expressed as native untagged proteins; made in house; host or cells: E. coli BL21(DE3)
T3 sequence (P05364 21-381): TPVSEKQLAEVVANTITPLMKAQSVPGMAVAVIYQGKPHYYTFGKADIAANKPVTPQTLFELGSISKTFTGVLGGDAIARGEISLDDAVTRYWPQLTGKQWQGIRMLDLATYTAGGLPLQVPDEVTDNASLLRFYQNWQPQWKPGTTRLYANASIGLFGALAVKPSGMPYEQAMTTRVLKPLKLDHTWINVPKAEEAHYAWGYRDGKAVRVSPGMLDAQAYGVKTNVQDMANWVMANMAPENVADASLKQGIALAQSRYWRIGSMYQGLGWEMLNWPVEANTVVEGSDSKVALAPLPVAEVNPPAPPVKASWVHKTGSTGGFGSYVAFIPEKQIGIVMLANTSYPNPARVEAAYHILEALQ
Description: as §1, §2, §3

KPC-2 β-lactamase = molecular target: T4, KPC-2 β-lactamase (Klebsiella pneumoniae, UniProt Q9F663); test: β-lactamase enzyme inhibition assay (nitrocefin substrate), KPC-2; type: biochemical
T4 construct: expressed as native untagged proteins; made in house; host or cells: E. coli BL21(DE3)
T4 sequence (Q9F663 25-293 limits assumed): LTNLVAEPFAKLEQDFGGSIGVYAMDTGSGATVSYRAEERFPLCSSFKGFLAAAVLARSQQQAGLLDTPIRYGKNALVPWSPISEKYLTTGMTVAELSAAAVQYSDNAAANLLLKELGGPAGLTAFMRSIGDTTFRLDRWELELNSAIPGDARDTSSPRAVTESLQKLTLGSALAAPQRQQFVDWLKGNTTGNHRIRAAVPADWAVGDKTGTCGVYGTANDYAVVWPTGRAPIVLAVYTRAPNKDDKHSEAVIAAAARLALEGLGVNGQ
Description: as §1, §2, §3

[1] = test system: E. coli expressing the Class A ESBL SHV-5; test: In vitro antibacterial assay of β-lactamase inhibition (broth microdilution MIC), E. coli SHV-5; type: cell-based; settings: in presence of Ceftazidime 8 μg/ml (Examples 1-56)
Description: (§4) To determine the ability of test compounds to potentiate the inhibition of the growth of bacterial strains producing beta-lactamase enzymes, classic cell based screening assays were employed. Five bacteria strains producing beta-lactamase enzymes were used: K. pneumoniae expressing the Class A Extended Spectrum Beta-Lactamase (ESBL) CTX-M-15, E. coli expressing the Class A ESBL SHV-5, E. cloacae expressing the Class C P99+, K. pneumoniae expressing the Class A carbapenemase KPC-2, and P. aeruginosa expressing the Class B metallo β-lactamase VIM-2. In order to evaluate the ability of test compounds to inhibit beta-lactamase activity, Applicants used a modification of the broth microdilution assay. The assay was conducted in Cation Adjusted Mueller Hinton Broth (CAMHB, BD # 212322, BD Diagnostic Systems, Sparks, Md.). Bacteria strains were grown for 3-5 hours in CAMBH broth. All five strains were grown in presence of 50 μg/mL ampicillin to ensure resistance is maintained. In the meantime, test compounds were diluted in DMSO to a 0.1 mg/mL stock. The compounds were added to a microtiter plate and were diluted in 2-fold serial dilutions in CAMHB in a final concentration range of 8 μg/mL to 0.015 μg/ml. […] Each of these compound plates are made in quadruplicate, one for each bacteria strain. In addition to the titration of test compounds the MICs of a panel of cephalosporins is also tested to ensure the strains are behaving consistently from test to test. Once the test compound and cephalosporin are added the plates can be inoculated. Inocula are conducted according to CLSI broth microdilution method. After inoculation the plates are incubated for 16-20 hours at 37° C. then the Minimal Inhibitory Concentration (MIC) of the test compound is determined visually.
(§5) Using the methodology described above, examples of the current invention were evaluated for their ability to inhibit the growth of β-lactamase producing bacteria in the presence of a β-lactam antibiotic.

[2] = test system: K. pneumoniae expressing the Class A Extended Spectrum Beta-Lactamase (ESBL) CTX-M-15; test: In vitro antibacterial assay of β-lactamase inhibition (broth microdilution MIC), K. pneumoniae CTX-M-15; type: cell-based; settings: in presence of Ceftazidime 8 μg/ml (Examples 1-56)
Description: as §4, §5

[3] = test system: E. cloacae expressing the Class C P99+; test: In vitro antibacterial assay of β-lactamase inhibition (broth microdilution MIC), E. cloacae P99+; type: cell-based; settings: in presence of Ceftazidime 8 μg/ml (Examples 1-56)
Description: as §4, §5

[4] = test system: K. pneumoniae expressing the Class A carbapenemase KPC-2; test: microbe, parasite or virus in culture; type: cell-based; settings: in presence of Ceftazidime 8 μg/ml (Examples 1-56)
Description: as §4, §5

[5] = test system: P. aeruginosa expressing the Class B metallo β-lactamase VIM-2; test: In vitro antibacterial assay of β-lactamase inhibition (broth microdilution MIC), P. aeruginosa VIM-2; type: cell-based; settings: in presence of Ceftazidime 16 μg/mL (Examples 1-56)
Description: as §4, §5

[6] = nitrocefin 100 μM, 37° C., PBS pH 7.0, read-out: P99 AmpC IC50

Compound	IC50 (SHV-5 β-lactamase) [nM]	IC50 (CTX-M15 β-lactamase) [nM]	IC50 (p99 AmpC β-lactamase; [6]) [nM]	IC50 (KPC-2 β-lactamase) [nM]	MIC of example compound, E. coli SHV-5 [1] [µg/mL]	MIC of example compound, K. pneumoniae CTX-M-15 [2] [µg/mL]	MIC of example compound, E. cloacae P99+ [3] [µg/mL]	MIC of example compound, K. pneumoniae KPC-2 [4] [µg/mL]	MIC of example compound, P. aeruginosa VIM-2 [5] [µg/mL]	IC50 (p99 AmpC β-lactamase) [nM]	IC50 (SHV-5 β-lactamase; nitrocefin 100 μM, 37° C., PBS pH 7.0, read-out: SHV-5 IC50) [nM]	IC50 (CTX-M15 β-lactamase; nitrocefin 100 μM, 37° C., PBS pH 7.0, read-out: CTXM-15 IC50) [nM]	IC50 (KPC-2 β-lactamase; nitrocefin 100 μM, 37° C., PBS pH 7.0, read-out: KPC-2 IC50) [nM]
CC(=O)N(CCN)Cc1cccc(C(=O)N[C@@H](Cc2cccc(C(=O)O)c2O)B(O)O)c1 [Example 24, (1R)-(3-{[acetyl-(2-amino-ethyl)-amino]-methyl}-benzoylamino)-(3-carboxy-2-hydroxy)benzyl-methylboronic acid formate]	350	4	2	18	8	1	1	0.12	>8	–	–	–	–
O=C(N[C@@H](Cc1cccc(C(=O)O)c1O)B(O)O)c1cccc(CNCCCO)c1 [Example 25, (1R)-[3-{(3-hydroxy-propylamino)-methyl}-benzoylamino]-(3-carboxy-2hydroxy)benzyl-methylboronic acid formate]	580	3	0.9	20	8	1	0.5	0.03	>8	–	–	–	–
O=C(N[C@@H](Cc1cccc(C(=O)O)c1O)B(O)O)c1cccc(CNc2cccnc2)c1 [Example 26, (1R)-[3-(pyridin-3-ylaminomethyl)-benzoylamino]-(3-carboxy-2hydroxy)benzyl-methylboronic acid formate]	94	1	0.4	11	>8	4	2	0.5	>8	–	–	–	–
CN(C)Cc1cccc(C(=O)N[C@@H](Cc2cccc(C(=O)O)c2O)B(O)O)c1 [Example 27, (1R)-(3-dimethylaminomethyl-benzoylamino)-(3-carboxy-2-hydroxy)benzyl-methylboronic acid formate]	312	3	1.4	14	>8	1	0.5	0.03	>8	–	–	–	–
CC(C)(O/N=C(\C(=O)N[C@@H](Cc1cccc(C(=O)O)c1O)B(O)O)c1csc(NC(=O)CN)n1)C(=O)O.Cl [Example 50, 3-{2(R)-[2-[2-(2-amino-acetylamino)-thiazol-4-yl]-2(Z)-(1-carboxy-1-methyl-ethoxyimino)-acetylamino]-2-borono-ethyl}-2-hydroxy-benzoic acid hydrochloride]	24	34	23	158	>8	>8	>8	>8	>8	–	–	–	–
CO/N=C(\C(=O)N[C@@H](Cc1cccc(C(=O)O)c1O)B(O)O)c1csc(NC(=O)CN)n1.Cl [Example 51, 3-(2(R)-{2-[2-(2-amino-acetylamino)-thiazol-4-yl]-2(Z)-methoxyimino-acetylamino}-2-borono-ethyl)-2-hydroxy-benzoic acid hydrochloride]	15	40	17	58	>8	>8	>8	>8	>8	–	–	–	–
CO/N=C(\C(=O)N[C@@H](Cc1cccc(C(=O)O)c1O)B(O)O)c1csc(NC(=O)[C@@H](N)CCCCN)n1 [Example 52, 3-(2(R)-{2-[2-(2(S),6-diamino-hexanoylamino)-thiazol-4-yl]-2(Z)-methoxyimino-acetylamino}-2-borono-ethyl)-2-hydroxy-benzoic acid hydrochloride]	26	55	–	89	>8	>8	>8	2	>8	8	–	–	–
(1R)-[4-(1-amino-cyclopropyl)]-benzoylamino]-(3-carboxy-2-hydroxy)benzyl-methylboronic acid formate [Example 22]	–	–	34	–	8	2	0.5	0.007	>8	–	> 1000	0.6	5
